Results taken from ChEMBL document CHEMBL4184278, “Synthesis and cytotoxicity of novel imidazo[4,5-d]azepine compounds derived from marine natural product ceratamine A” (Bioorg Med Chem Lett, 2018).

Tests used:
Type in all cases: functional, cell-based
HCT-116 = test: Cytotoxicity against human HCT116 cells assessed as growth inhibition after 72 hrs by MTT assay; settings: HCT-116, 72 h
HepG2 = test: Cytotoxicity against human HepG2 cells assessed as growth inhibition after 72 hrs by MTT assay; settings: HepG2, 72 h
BGC-823 = test: Cytotoxicity against human BGC823 cells assessed as growth inhibition after 72 hrs by MTT assay; settings: BGC-823, 72 h
A549 = test: Cytotoxicity against human A549 cells assessed as growth inhibition after 72 hrs by MTT assay; settings: A549, 72 h
A2780 = test: Cytotoxicity against human A2780 cells assessed as growth inhibition after 72 hrs by MTT assay; settings: A2780, 72 h

SMILES | IC50 (HCT-116) [µM] | IC50 (HepG2) [µM] | IC50 (BGC-823) [µM] | IC50 (A549) [µM] | IC50 (A2780) [µM]
O=C1/C(=C\c2ccccc2)c2c(ncn2COCc2ccccc2)CCN1Cc1ccc(F)cc1 | 11.2 | 39.4 | 72.9 | 19.6 | 24.8
CC(C)(C)c1ccc(CN2CCc3ncn(COCc4ccccc4)c3/C(=C/c3ccccc3)C2=O)cc1 | 8.46 | 18 | 27.8 | 20.6 | 23.9
Cc1cccc(CN2CCc3ncn(COCc4ccccc4)c3/C(=C/c3ccccc3)C2=O)c1 | 3.8 | 34.3 | 14.6 | 16.1 | 26.3
COc1cc(/C=C2\C(=O)N(Cc3ccccc3)CCc3ncn(COCc4ccccc4)c32)cc(OC)c1OC | 8.9 | 10 | 12.9 | 8.56 | 8.97
Cc1cc(C)cc(CN2CCc3ncn(COCc4ccccc4)c3/C(=C/c3ccccc3)C2=O)c1 | 6.23 | 40.9 | 52.6 | 22.5 | 31.3
COc1ccc(CN2CCc3ncn(COCc4ccccc4)c3/C(=C/c3ccccc3)C2=O)cc1 | 31.1 | 44.4 | 71.6 | 46.8 | 43.1
Cc1ccc(CN2CCc3ncn(COCc4ccccc4)c3/C(=C/c3ccccc3)C2=O)cc1 | 7.94 | 44.6 | 39.1 | 11.4 | 21.2
O=C1/C(=C\c2ccccc2)c2c(ncn2COCc2ccccc2)CCN1Cc1ccc(-c2ccccc2)cc1 | 14 | 72.5 | 81 | 18.3 | 48.3
Cc1ccccc1CN1CCc2ncn(COCc3ccccc3)c2/C(=C/c2ccccc2)C1=O | 24.7 | 53.3 | 31.3 | 25.6 | 25.2
O=C1/C(=C\c2ccccc2)c2c(ncn2COCc2ccccc2)CCN1Cc1ccccc1 | 20 | 13.9 | 20.4 | 9.9 | 20.4
O=C1/C(=C\c2ccccc2)c2c(ncn2COCc2ccccc2)CCN1Cc1ccc2ccccc2c1 | 19.4 | 23.7 | 93.3 | 26.4 | 72.8
O=C1/C(=C\c2ccccc2)c2c(ncn2COCc2ccccc2)CCN1Cc1ccc(Cl)cc1 | 10.5 | 47.9 | 75.7 | 11.8 | 22.2
O=C1/C(=C\c2ccccc2)c2[nH]cnc2CCN1Cc1ccccc1 | > 100 | > 100 | > 100 | 51.1 | > 100
O=C1/C(=C\c2ccncc2)c2c(ncn2COCc2ccccc2)CCN1Cc1ccccc1 | 67.1 | > 100 | > 100 | 36 | > 100
O=C1/C(=C\c2ccc(C(F)(F)F)cc2)c2c(ncn2COCc2ccccc2)CCN1Cc1ccccc1 | 36 | 51.4 | 42.6 | 52.5 | 28.2
CNc1nc2ccn(C)c(=O)c(Cc3cc(Br)c(OC)c(Br)c3)c-2n1 [CERATAMINE A] | 12.4 | 7.8 | 20 | 26.8 | 11.2
